For this series, the system named is CCRIS mutagenicity, Ames/micronucleus/aberration tests. The experiment in a line: CCRIS mutagenicity studies.
Where [1] appears, read: Test System: AMES SALMONELLA TYPHIMURIUM, Strain/Indicator: TA98, Metabolic Activation: NONE, Method: STANDARD PLATE.
Setting [2] is: Test System: AMES SALMONELLA TYPHIMURIUM, Strain/Indicator: TA100, Metabolic Activation: NONE, Method: STANDARD PLATE.

The source made the active and inactive calls. The rule behind the calls is not given here.

For `CC=C(C)C#N`, the mutagenic call by setting is: (Test System: AMES SALMONELLA TYPHIMURIUM, Strain/Indicator: TA97, Metabolic Activation: HAMSTER, LIVER, S-9, AROCLOR 1254 (10 OR 30%), Method: PREINCUBATION) “inactive; negative”; (Test System: AMES SALMONELLA TYPHIMURIUM, Strain/Indicator: TA97, Metabolic Activation: HAMSTER, LIVER, S-9, AROCLOR 1254 (30%), Method: PREINCUBATION) “inactive; negative”; (Test System: AMES SALMONELLA TYPHIMURIUM, Strain/Indicator: TA97, Metabolic Activation: NONE, Method: PREINCUBATION) “inactive; negative”; (Test System: AMES SALMONELLA TYPHIMURIUM, Strain/Indicator: TA97, Metabolic Activation: RAT, LIVER, S-9, AROCLOR 1254 (10%), Method: PREINCUBATION) “inactive; negative”; (Test System: AMES SALMONELLA TYPHIMURIUM, Strain/Indicator: TA98, Metabolic Activation: HAMSTER, LIVER, S-9, AROCLOR 1254 (10%), Method: PREINCUBATION) “inactive; negative”; (Test System: AMES SALMONELLA TYPHIMURIUM, Strain/Indicator: TA98, Metabolic Activation: HAMSTER, LIVER, S-9, AROCLOR 1254 (30%), Method: PREINCUBATION) “inactive; negative”. Besides, the mutagenic call reads like this: (Test System: AMES SALMONELLA TYPHIMURIUM, Strain/Indicator: TA98, Metabolic Activation: NONE, Method: PREINCUBATION) “inactive; negative”; (Test System: AMES SALMONELLA TYPHIMURIUM, Strain/Indicator: TA98, Metabolic Activation: RAT, LIVER, S-9, AROCLOR 1254 (10%), Method: PREINCUBATION) “inactive; negative”; (Test System: AMES SALMONELLA TYPHIMURIUM, Strain/Indicator: TA98, Metabolic Activation: RAT, LIVER, S-9, AROCLOR 1254 (30%), Method: PREINCUBATION) “inactive; negative”; (Test System: AMES SALMONELLA TYPHIMURIUM, Strain/Indicator: TA100, Metabolic Activation: HAMSTER, LIVER, S-9, AROCLOR 1254 (10%), Method: PREINCUBATION) “inactive; negative”; (Test System: AMES SALMONELLA TYPHIMURIUM, Strain/Indicator: TA100, Metabolic Activation: HAMSTER, LIVER, S-9, AROCLOR 1254 (30%), Method: PREINCUBATION) “inactive; negative”; (Test System: AMES SALMONELLA TYPHIMURIUM, Strain/Indicator: TA100, Metabolic Activation: NONE, Method: PREINCUBATION) “inactive; negative”. Further, the mutagenic call is, setting by setting: (Test System: AMES SALMONELLA TYPHIMURIUM, Strain/Indicator: TA100, Metabolic Activation: RAT, LIVER, S-9, AROCLOR 1254 (10%), Method: PREINCUBATION) “inactive; negative”; (Test System: AMES SALMONELLA TYPHIMURIUM, Strain/Indicator: TA100, Metabolic Activation: RAT, LIVER, S-9, AROCLOR 1254 (30%), Method: PREINCUBATION) “inactive; negative”; (Test System: AMES SALMONELLA TYPHIMURIUM, Strain/Indicator: TA1535, Metabolic Activation: HAMSTER, LIVER, S-9, AROCLOR 1254 (10 OR 30%), Method: PREINCUBATION) “inactive; negative”; (Test System: AMES SALMONELLA TYPHIMURIUM, Strain/Indicator: TA1535, Metabolic Activation: NONE, Method: PREINCUBATION) “inactive; negative”; (Test System: AMES SALMONELLA TYPHIMURIUM, Strain/Indicator: TA1535, Metabolic Activation: RAT, LIVER, S-9, AROCLOR 1254 (10%), Method: PREINCUBATION) “inactive; negative”; (Test System: AMES SALMONELLA TYPHIMURIUM, Strain/Indicator: TA1537, Metabolic Activation: HAMSTER, LIVER, S-9, AROCLOR 1254 (30%), Method: PREINCUBATION) “inactive; negative”. The mutagenic call (Test System: AMES SALMONELLA TYPHIMURIUM, Strain/Indicator: TA1537, Metabolic Activation: NONE, Method: PREINCUBATION) is “inactive; negative” and the mutagenic call (Test System: AMES SALMONELLA TYPHIMURIUM, Strain/Indicator: TA1537, Metabolic Activation: RAT, LIVER, S-9, AROCLOR 1254 (30%), Method: PREINCUBATION) was “inactive; negative”.
For the compound `CC(=O)N(O)c1ccc(Sc2ccccc2)cc1`, the mutagenic call runs as follows: under setting [1], “active; positive”; (Test System: AMES SALMONELLA TYPHIMURIUM, Strain/Indicator: TA98, Metabolic Activation: RAT, LIVER, S-9, AROCLOR 1254, Method: STANDARD PLATE) “active; positive”.
Take `NC(=O)N(CCCCO)N=O`: the mutagenic call is, setting by setting: (Test System: E. COLI B, Strain/Indicator: H/R30R, Metabolic Activation: NONE) “active; positive”; (Test System: E. COLI B, Strain/Indicator: HS30R, Metabolic Activation: NONE) “active; positive”.
As to `CN(C)c1ccc(N=O)cc1`, the mutagenic call (Test System: AMES SALMONELLA TYPHIMURIUM, Strain/Indicator: TA100, Metabolic Activation: NONE, Method: FLUCTUATION TEST) was “active; positive”.
Regarding `CCC(C)c1ccc(/C=C/c2ccc(N)cc2)cc1` (configuration not stated), the mutagenic call is, setting by setting: under setting [1], “inactive; negative”; (Test System: AMES SALMONELLA TYPHIMURIUM, Strain/Indicator: TA98, Metabolic Activation: RAT, LIVER, S-9, AROCLOR, Method: STANDARD PLATE) “active; positive”; under setting [2], “inactive; negative”; (Test System: AMES SALMONELLA TYPHIMURIUM, Strain/Indicator: TA100, Metabolic Activation: RAT, LIVER, S-9, AROCLOR, Method: STANDARD PLATE) “active; positive”.
For `Nc1ccc(/C=C/c2cccc(N)c2)cc1`, the mutagenic call is, setting by setting: (Test System: AMES SALMONELLA TYPHIMURIUM, Strain/Indicator: TA98(1,8-DNP6), Metabolic Activation: NONE, Method: STANDARD PLATE) “inactive; negative”; (Test System: AMES SALMONELLA TYPHIMURIUM, Strain/Indicator: TA98(1,8-DNP6), Metabolic Activation: S-9, Method: STANDARD PLATE) “active; positive”; under setting [1], “active; positive”; (Test System: AMES SALMONELLA TYPHIMURIUM, Strain/Indicator: TA98, Metabolic Activation: S-9, Method: STANDARD PLATE) “active; positive”; under setting [2], “inactive; negative”; (Test System: AMES SALMONELLA TYPHIMURIUM, Strain/Indicator: TA100, Metabolic Activation: S-9, Method: STANDARD PLATE) “active; positive”.
With `N#Cc1cc(Br)c(O)c(Br)c1`, the mutagenic call by setting is: (Test System: AMES SALMONELLA TYPHIMURIUM, Strain/Indicator: TA98, Metabolic Activation: HAMSTER, LIVER, S-9, AROCLOR 1254 (10%), Method: STANDARD PLATE) “inactive; negative”; under setting [1], “inactive; negative”; (Test System: AMES SALMONELLA TYPHIMURIUM, Strain/Indicator: TA98, Metabolic Activation: RAT, LIVER, S-9, AROCLOR 1254 (10%), Method: STANDARD PLATE) “inactive; negative”; (Test System: AMES SALMONELLA TYPHIMURIUM, Strain/Indicator: TA100, Metabolic Activation: HAMSTER, LIVER, S-9, AROCLOR 1254 (10%), Method: STANDARD PLATE) “inactive; negative”; under setting [2], “inactive; negative”; (Test System: AMES SALMONELLA TYPHIMURIUM, Strain/Indicator: TA100, Metabolic Activation: RAT, LIVER, S-9, AROCLOR 1254 (10%), Method: STANDARD PLATE) “inactive; negative”. Also, the mutagenic call runs as follows: (Test System: AMES SALMONELLA TYPHIMURIUM, Strain/Indicator: TA1535, Metabolic Activation: HAMSTER, LIVER, S-9, AROCLOR 1254 (10%), Method: STANDARD PLATE) “inactive; negative”; (Test System: AMES SALMONELLA TYPHIMURIUM, Strain/Indicator: TA1535, Metabolic Activation: NONE, Method: STANDARD PLATE) “inactive; negative”; (Test System: AMES SALMONELLA TYPHIMURIUM, Strain/Indicator: TA1535, Metabolic Activation: RAT, LIVER, S-9, AROCLOR 1254 (10%), Method: STANDARD PLATE) “inactive; negative”; (Test System: AMES SALMONELLA TYPHIMURIUM, Strain/Indicator: TA1537, Metabolic Activation: HAMSTER, LIVER, S-9, AROCLOR 1254 (10%), Method: STANDARD PLATE) “inactive; negative”; (Test System: AMES SALMONELLA TYPHIMURIUM, Strain/Indicator: TA1537, Metabolic Activation: NONE, Method: STANDARD PLATE) “inactive; negative”; (Test System: AMES SALMONELLA TYPHIMURIUM, Strain/Indicator: TA1537, Metabolic Activation: RAT, LIVER, S-9, AROCLOR 1254 (10%), Method: STANDARD PLATE) “inactive; negative”. Further, the mutagenic call reads like this: (Test System: AMES SALMONELLA TYPHIMURIUM, Strain/Indicator: TA1538, Metabolic Activation: HAMSTER, LIVER, S-9, AROCLOR 1254 (10%), Method: STANDARD PLATE) “inactive; negative”; (Test System: AMES SALMONELLA TYPHIMURIUM, Strain/Indicator: TA1538, Metabolic Activation: NONE, Method: STANDARD PLATE) “inactive; negative”; (Test System: AMES SALMONELLA TYPHIMURIUM, Strain/Indicator: TA1538, Metabolic Activation: RAT, LIVER, S-9, AROCLOR 1254 (10%), Method: STANDARD PLATE) “inactive; negative”; (Test System: MOUSE LYMPHOMA, Strain/Indicator: L5178Y (TK+/TK-), Metabolic Activation: RAT, LIVER, S-9, AROCLOR 1254, Method: SUSPENSION/PLATE) “active; positive. reevaluation of results: equivocal”; (Test System: Mouse lymphoma, Strain/Indicator: L5178Y (tk+/tk-), Metabolic Activation: None, Method: Suspension/plate) “inactive; negative”.

The values are drawn from PubChem BioAssay AID1259407 (Chemical Carcinogenesis Research Information System (CCRIS), 2018).
